Test results: US20250275540A1, “USE OF PROTOPORPHYRINOGEN OXIDASE” (BEIJING DABEINONG BIOTECHNOLOGY CO., LTD., priority 2022, published 2025)

Test system: transgenic Arabidopsis thaliana T1 plants
Assay: Detection of the herbicide tolerance of the transgenic Arabidopsis thaliana plants
Format: in vivo
Details: for The grade of pesticide damage/plant: 0 / The grade of pesticide damage/plant: 1 / The grade of pesticide damage/plant: 2 / The grade of pesticide damage/plant: 3: 7 DAT
From the text: The transformed Arabidopsis thaliana T1 plants were initially selected using glufosinate herbicide. The Arabidopsis thaliana T1 plants (PPOA-01) into which the PPOA-01 nucleotide sequence was introduced, the Arabidopsis thaliana T1 plants (PPOB-01) into which the PPOB-01 nucleotide sequence was introduced, the Arabidopsis thaliana T1 plants (PPOC-01) into which the PPOC-01 nucleotide sequence was introduced, the Arabidopsis thaliana T1 plants (PPOD-01) into which the PPOD-01 nucleotide sequence was introduced, the Arabidopsis thaliana T1 plants (PPOE-01) into which the PPOE-01 nucleotide sequence was introduced, the Arabidopsis thaliana T1 plants (PPOF-01) into which the PPOF-01 nucleotide sequence was introduced, the Arabidopsis thaliana T1 plants (PPO-AP-01) into which the PPO-AP-01 nucleotide sequence was introduced, and the Arabidopsis thaliana T1 plants (control vector) into which the control vector was introduced, the wild-type Arabidopsis thaliana plants (CK) (with 24 plants being included in each genotype) (18 days after sowing) were sprayed with saflufenacil at three concentrations (25 g ai/ha (one-fold field concentration, 1×), 100 g ai/ha (four-fold field concentration, 4×), and 0 g ai/ha (water, 0×)), oxyfluorfen at three concentrations (180 g ai/ha (one-fold field concentration, 1×), 720 g ai/ha (four-fold field concentration, 4×), and 0 g ai/ha (water, 0×)), and flumioxazin at three concentrations (60 g ai/ha (one-fold field concentration, 1×), 240 g ai/ha (four-fold field concentration, 4×), and 0 g ai/ha (water, 0×) to determine the tolerance of Arabidopsis thaliana to the herbicides. After 7 days of spraying (7 DAT), the damage level of each plant caused by the herbicide was evaluated according to the average of the damage levels (%) of plants (the average of the damage levels (%) of plants=the injured leaf area/the total leaf area×100%), i.e., the grade of pesticide damage: grade 0 means that the growth status of plants is essentially consistent with those sprayed with the blank solvent (water); grade 1 means that the average of the damage levels of plants is less than 10%; grade 2 means that the average of the damage levels of plants is greater than 10%; and grade 3 means that the average of the damage levels of plants is 100%. The plants having a growth status falling within grades 0 and 1 are classified as highly resistant plants; those having a growth status falling within grade 2 are classified as poorly resistant plants; and those having a growth status falling within grade 3 are classified as non-resistant plants.

[1] = genotype Control vector, 25 g ai/ha
[2] = genotype Control vector, 100 g ai/ha
[3] = genotype PPO-AP-01, 100 g ai/ha

CC(C)N(C)S(=O)(=O)NC(=O)c1cc(-n2c(=O)cc(C(F)(F)F)n(C)c2=O)c(F)cc1Cl [saflufenacil, N′-[2-chloro-4-fluoro-5-(3-methyl-2,6-dioxo-4-(trifluoromethyl)-3,6-dihydro-1 (2H)-pyrimidine)benzoyl]-N-isopropyl-N-methylsulfamide]
effective dose distinguishing sensitive plants from plants having an average level of resistance (Arabidopsis thaliana): 25 g ai/ha
The grade of pesticide damage/plant: 0 (genotype CK, 25 g ai/ha): 0 plant
The grade of pesticide damage/plant: 1 (genotype CK, 25 g ai/ha): 0 plant
The grade of pesticide damage/plant: 2 (genotype CK, 25 g ai/ha): 0 plant
The grade of pesticide damage/plant: 3 (genotype CK, 25 g ai/ha): 24 plant
The grade of pesticide damage/plant: 0 (genotype CK, 100 g ai/ha): 0 plant
The grade of pesticide damage/plant: 1 (genotype CK, 100 g ai/ha): 0 plant
The grade of pesticide damage/plant: 2 (genotype CK, 100 g ai/ha): 0 plant
The grade of pesticide damage/plant: 3 (genotype CK, 100 g ai/ha): 24 plant
The grade of pesticide damage/plant: 0 [1]: 0 plant
The grade of pesticide damage/plant: 1 [1]: 0 plant
The grade of pesticide damage/plant: 2 [1]: 0 plant
The grade of pesticide damage/plant: 3 [1]: 24 plant
The grade of pesticide damage/plant: 0 [2]: 0 plant
The grade of pesticide damage/plant: 1 [2]: 0 plant
The grade of pesticide damage/plant: 2 [2]: 0 plant
The grade of pesticide damage/plant: 3 [2]: 24 plant
The grade of pesticide damage/plant: 0 (genotype PPO-AP-01, 25 g ai/ha): 0 plant
The grade of pesticide damage/plant: 1 (genotype PPO-AP-01, 25 g ai/ha): 0 plant
The grade of pesticide damage/plant: 2 (genotype PPO-AP-01, 25 g ai/ha): 0 plant
The grade of pesticide damage/plant: 3 (genotype PPO-AP-01, 25 g ai/ha): 24 plant
The grade of pesticide damage/plant: 0 [3]: 0 plant
The grade of pesticide damage/plant: 1 [3]: 0 plant
The grade of pesticide damage/plant: 2 [3]: 0 plant
The grade of pesticide damage/plant: 3 [3]: 24 plant
tolerance to the herbicide (in words) (genotype PPO-AP-01, at different concentrations): no tolerance
The grade of pesticide damage/plant: 0 (genotype PPOA-01, 25 g ai/ha): 24 plant
The grade of pesticide damage/plant: 1 (genotype PPOA-01, 25 g ai/ha): 0 plant
The grade of pesticide damage/plant: 2 (genotype PPOA-01, 25 g ai/ha): 0 plant
The grade of pesticide damage/plant: 3 (genotype PPOA-01, 25 g ai/ha): 0 plant
The grade of pesticide damage/plant: 0 (genotype PPOA-01, 100 g ai/ha): 0 plant
The grade of pesticide damage/plant: 1 (genotype PPOA-01, 100 g ai/ha): 24 plant
The grade of pesticide damage/plant: 2 (genotype PPOA-01, 100 g ai/ha): 0 plant
The grade of pesticide damage/plant: 3 (genotype PPOA-01, 100 g ai/ha): 0 plant
The grade of pesticide damage/plant: 0 (genotype PPOB-01, 25 g ai/ha): 24 plant
The grade of pesticide damage/plant: 1 (genotype PPOB-01, 25 g ai/ha): 0 plant
The grade of pesticide damage/plant: 2 (genotype PPOB-01, 25 g ai/ha): 0 plant
The grade of pesticide damage/plant: 3 (genotype PPOB-01, 25 g ai/ha): 0 plant
The grade of pesticide damage/plant: 0 (genotype PPOB-01, 100 g ai/ha): 0 plant
The grade of pesticide damage/plant: 1 (genotype PPOB-01, 100 g ai/ha): 24 plant
The grade of pesticide damage/plant: 2 (genotype PPOB-01, 100 g ai/ha): 0 plant
The grade of pesticide damage/plant: 3 (genotype PPOB-01, 100 g ai/ha): 0 plant
The grade of pesticide damage/plant: 0 (genotype PPOC-01, 25 g ai/ha): 24 plant
The grade of pesticide damage/plant: 1 (genotype PPOC-01, 25 g ai/ha): 0 plant
The grade of pesticide damage/plant: 2 (genotype PPOC-01, 25 g ai/ha): 0 plant
The grade of pesticide damage/plant: 3 (genotype PPOC-01, 25 g ai/ha): 0 plant
The grade of pesticide damage/plant: 0 (genotype PPOC-01, 100 g ai/ha): 0 plant
The grade of pesticide damage/plant: 1 (genotype PPOC-01, 100 g ai/ha): 24 plant
The grade of pesticide damage/plant: 2 (genotype PPOC-01, 100 g ai/ha): 0 plant
The grade of pesticide damage/plant: 3 (genotype PPOC-01, 100 g ai/ha): 0 plant
The grade of pesticide damage/plant: 0 (genotype PPOD-01, 25 g ai/ha): 24 plant
The grade of pesticide damage/plant: 1 (genotype PPOD-01, 25 g ai/ha): 0 plant
The grade of pesticide damage/plant: 2 (genotype PPOD-01, 25 g ai/ha): 0 plant
The grade of pesticide damage/plant: 3 (genotype PPOD-01, 25 g ai/ha): 0 plant
The grade of pesticide damage/plant: 0 (genotype PPOD-01, 100 g ai/ha): 0 plant
The grade of pesticide damage/plant: 1 (genotype PPOD-01, 100 g ai/ha): 24 plant
The grade of pesticide damage/plant: 2 (genotype PPOD-01, 100 g ai/ha): 0 plant
The grade of pesticide damage/plant: 3 (genotype PPOD-01, 100 g ai/ha): 0 plant
The grade of pesticide damage/plant: 0 (genotype PPOE-01, 25 g ai/ha): 24 plant
The grade of pesticide damage/plant: 1 (genotype PPOE-01, 25 g ai/ha): 0 plant
The grade of pesticide damage/plant: 2 (genotype PPOE-01, 25 g ai/ha): 0 plant
The grade of pesticide damage/plant: 3 (genotype PPOE-01, 25 g ai/ha): 0 plant
The grade of pesticide damage/plant: 0 (genotype PPOE-01, 100 g ai/ha): 0 plant
The grade of pesticide damage/plant: 1 (genotype PPOE-01, 100 g ai/ha): 24 plant
The grade of pesticide damage/plant: 2 (genotype PPOE-01, 100 g ai/ha): 0 plant
The grade of pesticide damage/plant: 3 (genotype PPOE-01, 100 g ai/ha): 0 plant
The grade of pesticide damage/plant: 0 (genotype PPOF-01, 25 g ai/ha): 24 plant
The grade of pesticide damage/plant: 1 (genotype PPOF-01, 25 g ai/ha): 0 plant
The grade of pesticide damage/plant: 2 (genotype PPOF-01, 25 g ai/ha): 0 plant
The grade of pesticide damage/plant: 3 (genotype PPOF-01, 25 g ai/ha): 0 plant
The grade of pesticide damage/plant: 0 (genotype PPOF-01, 100 g ai/ha): 0 plant
The grade of pesticide damage/plant: 1 (genotype PPOF-01, 100 g ai/ha): 24 plant
The grade of pesticide damage/plant: 2 (genotype PPOF-01, 100 g ai/ha): 0 plant
The grade of pesticide damage/plant: 3 (genotype PPOF-01, 100 g ai/ha): 0 plant
tolerance to the herbicide (in words) (genotypes PPOA-01 to PPOF-01, at different concentrations, compared with the control vector and CK): high-resistant tolerance
